Measured values: US20210214758A1, “METHODS AND TOOLS FOR DETERMINING CLONAL RELATEDNESS AND PREDICTING CLONAL TRAITS” (priority 2018, published 2021)

Tested on: Klebsiella isolates
Assay: Antibiotic susceptibility of Klebsiella clinical isolates per 7-SNP clonotype (Lookup Table 1; disk diffusion)
Type: cell-based, Klebsiella spp.
Procedure: In further embodiments, the Lookup Table is Lookup Table 1. The information contained in Lookup Table 1 below was obtained from urine specimens from patients with Klebsiella infections from several clinics within different regions of the United States. CT=clonotypes determined using a 7-SNP combination: phoE54; rpoB130; infB279; mdh315; phoE336; phoE354; and mdh429.
Next, antibiotic resistance was determined for all 387 Klebsiella isolates in the discovery set. Antibiotic testing was carried out according to the standard disk diffusion method as described in the Clinical and Laboratory Standards Institute (M100 Performance Standards for Antimicrobial Susceptibility Testing, 27th Edition, 2017). […] Since almost all Klebsiella isolates are known to be resistant to AMP and sensitive to IMI, TET is not used for treatment of urinary tract infections, and ESBL production is partially reflected in resistance to CTR, these antibiotics were not included for further analysis.
To aid in clinical decision-making and to translate clonotype information to treatment selection, Lookup Table 1 was generated. […] The information contained in Lookup Table 1 was obtained from urine specimens from patients with Klebsiella infections from several clinics within different regions of the United States. Indications of allowance or non-recommendation were determined based on a 20% resistance threshold to the indicated antibiotic; i.e., the antibiotic is recommended when more than 80% of the tested isolates within the indicated clonotype were susceptible to the indicated antibiotic, and was cautioned against when less than 80% of the isolates were susceptible to the antibiotic.

## trimethoprim/sulfamethoxazole [TS]
CT 000
  susceptibility, %: 87%
CT 001
  susceptibility, %: 100%
CT 010
  susceptibility, %: 100%
CT 011
  susceptibility, %: 91%
CT 031
  susceptibility, %: 67%
CT 040
  susceptibility, %: 25%
CT 050
  susceptibility, %: 86%
CT 051
  susceptibility, %: 85%
CT 071
  susceptibility, %: 60%
CT 100
  susceptibility, %: 100%
CT 110
  susceptibility, %: 100%
CT 111
  susceptibility, %: 90%
CT 130
  susceptibility, %: 92%
CT 131
  susceptibility, %: 72%
CT 141
  susceptibility, %: 100%
CT 150
  susceptibility, %: 73%
CT 151
  susceptibility, %: 65%
CT 160
  susceptibility, %: 0%
CT 170
  susceptibility, %: 83%
CT 171
  susceptibility, %: 92%
CT 200
  susceptibility, %: 77%
CT 201
  susceptibility, %: 79%
CT 210
  susceptibility, %: 95%
CT 211
  susceptibility, %: 91%
CT 230
  susceptibility, %: 100%
CT 231
  susceptibility, %: 100%
CT 240
  susceptibility, %: 100%
CT 241
  susceptibility, %: 100%
CT 250
  susceptibility, %: 80%
CT 251
  susceptibility, %: 80%
CT 271
  susceptibility, %: 75%
CT 300
  susceptibility, %: 0%
CT 301
  susceptibility, %: 76%
CT 310
  susceptibility, %: 100%
CT 311
  susceptibility, %: 65%
CT 330
  susceptibility, %: 55%
CT 331
  susceptibility, %: 76%
CT 350
  susceptibility, %: 74%
CT 351
  susceptibility, %: 84%
CT 370
  susceptibility, %: 75%
CT 371
  susceptibility, %: 100%
CT 411
  susceptibility, %: 100%
CT 450
  susceptibility, %: 83%
CT 451
  susceptibility, %: 100%
CT 510
  susceptibility, %: 100%
CT 511
  susceptibility, %: 0%
CT 530
  susceptibility, %: 45%
CT 531
  susceptibility, %: 67%
CT 550
  susceptibility, %: 79%
CT 551
  susceptibility, %: 52%
CT 570
  susceptibility, %: 75%
CT 571
  susceptibility, %: 100%
CT 611
  susceptibility, %: 100%
CT 630
  susceptibility, %: 100%
CT 650
  susceptibility, %: 83%
CT 651
  susceptibility, %: 85%
CT 670
  susceptibility, %: 100%
CT 710
  susceptibility, %: 67%
CT 730
  susceptibility, %: 45%
CT 731
  susceptibility, %: 82%
CT 750
  susceptibility, %: 65%
CT 751
  susceptibility, %: 100%
CT 771
  susceptibility, %: 86%
CT Any Klebsiella spp.
  susceptibility, %: 80%

## O=C1CN(/N=C/c2ccc([N+](=O)[O-])o2)C(=O)N1 [NIT, nitrofurantoin]
CT 000
  susceptibility, %: 91%
CT 001
  susceptibility, %: 0%
CT 010
  susceptibility, %: 33%
CT 011
  susceptibility, %: 82%
CT 031
  susceptibility, %: 100%
CT 040
  susceptibility, %: 50%
CT 050
  susceptibility, %: 33%
CT 051
  susceptibility, %: 56%
CT 071
  susceptibility, %: 60%
CT 100
  susceptibility, %: 86%
CT 110
  susceptibility, %: 0%
CT 111
  susceptibility, %: 30%
CT 130
  susceptibility, %: 70%
CT 131
  susceptibility, %: 56%
CT 141
  susceptibility, %: 0%
CT 150
  susceptibility, %: 42%
CT 151
  susceptibility, %: 41%
CT 160
  susceptibility, %: 0%
CT 170
  susceptibility, %: 39%
CT 171
  susceptibility, %: 28%
CT 200
  susceptibility, %: 97%
CT 201
  susceptibility, %: 66%
CT 210
  susceptibility, %: 57%
CT 211
  susceptibility, %: 81%
CT 230
  susceptibility, %: 0%
CT 231
  susceptibility, %: 50%
CT 240
  susceptibility, %: 100%
CT 241
  susceptibility, %: 0%
CT 250
  susceptibility, %: 50%
CT 251
  susceptibility, %: 57%
CT 271
  susceptibility, %: 50%
CT 300
  susceptibility, %: 0%
CT 301
  susceptibility, %: 64%
CT 310
  susceptibility, %: 47%
CT 311
  susceptibility, %: 60%
CT 330
  susceptibility, %: 15%
CT 331
  susceptibility, %: 53%
CT 350
  susceptibility, %: 54%
CT 351
  susceptibility, %: 59%
CT 370
  susceptibility, %: 25%
CT 371
  susceptibility, %: 25%
CT 411
  susceptibility, %: 50%
CT 450
  susceptibility, %: 50%
CT 451
  susceptibility, %: 67%
CT 510
  susceptibility, %: 0%
CT 511
  susceptibility, %: 100%
CT 530
  susceptibility, %: 31%
CT 531
  susceptibility, %: 33%
CT 550
  susceptibility, %: 19%
CT 551
  susceptibility, %: 18%
CT 570
  susceptibility, %: 25%
CT 571
  susceptibility, %: 50%
CT 611
  susceptibility, %: 50%
CT 630
  susceptibility, %: 0%
CT 650
  susceptibility, %: 63%
CT 651
  susceptibility, %: 35%
CT 670
  susceptibility, %: 0%
CT 710
  susceptibility, %: 67%
CT 730
  susceptibility, %: 36%
CT 731
  susceptibility, %: 67%
CT 750
  susceptibility, %: 50%
CT 751
  susceptibility, %: 33%
CT 771
  susceptibility, %: 57%
CT Any Klebsiella spp.
  susceptibility, %: 59%

## amoxicillin/clavulanate [AMC]
CT 000
  susceptibility, %: 92%
CT 001
  susceptibility, %: 100%
CT 010
  susceptibility, %: 100%
CT 011
  susceptibility, %: 91%
CT 031
  susceptibility, %: 67%
CT 040
  susceptibility, %: 75%
CT 050
  susceptibility, %: 90%
CT 051
  susceptibility, %: 90%
CT 071
  susceptibility, %: 80%
CT 100
  susceptibility, %: 86%
CT 110
  susceptibility, %: 100%
CT 111
  susceptibility, %: 90%
CT 130
  susceptibility, %: 98%
CT 131
  susceptibility, %: 69%
CT 141
  susceptibility, %: 100%
CT 150
  susceptibility, %: 87%
CT 151
  susceptibility, %: 78%
CT 160
  susceptibility, %: 100%
CT 170
  susceptibility, %: 96%
CT 171
  susceptibility, %: 92%
CT 200
  susceptibility, %: 69%
CT 201
  susceptibility, %: 89%
CT 210
  susceptibility, %: 71%
CT 211
  susceptibility, %: 90%
CT 230
  susceptibility, %: 100%
CT 231
  susceptibility, %: 100%
CT 240
  susceptibility, %: 0%
CT 241
  susceptibility, %: 100%
CT 250
  susceptibility, %: 100%
CT 251
  susceptibility, %: 93%
CT 271
  susceptibility, %: 96%
CT 300
  susceptibility, %: 100%
CT 301
  susceptibility, %: 96%
CT 310
  susceptibility, %: 80%
CT 311
  susceptibility, %: 80%
CT 330
  susceptibility, %: 95%
CT 331
  susceptibility, %: 86%
CT 350
  susceptibility, %: 83%
CT 351
  susceptibility, %: 92%
CT 370
  susceptibility, %: 100%
CT 371
  susceptibility, %: 75%
CT 411
  susceptibility, %: 100%
CT 450
  susceptibility, %: 100%
CT 451
  susceptibility, %: 100%
CT 510
  susceptibility, %: 100%
CT 511
  susceptibility, %: 100%
CT 530
  susceptibility, %: 93%
CT 531
  susceptibility, %: 83%
CT 550
  susceptibility, %: 86%
CT 551
  susceptibility, %: 50%
CT 570
  susceptibility, %: 75%
CT 571
  susceptibility, %: 100%
CT 611
  susceptibility, %: 100%
CT 630
  susceptibility, %: 100%
CT 650
  susceptibility, %: 91%
CT 651
  susceptibility, %: 92%
CT 670
  susceptibility, %: 100%
CT 710
  susceptibility, %: 100%
CT 730
  susceptibility, %: 60%
CT 731
  susceptibility, %: 98%
CT 750
  susceptibility, %: 95%
CT 751
  susceptibility, %: 100%
CT 771
  susceptibility, %: 100%
CT Any Klebsiella spp.
  susceptibility, %: 87%
